What was measured:
bedstraw = assay: Test B pre/postemergence bedstraw; assay type: in vivo, Galium aparine; conditions: Preemergence
Summary of the method: (§1)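 Test chemicals in a non-phytotoxic solvent mixture with surfactant were sprayed preemergence onto planted seeds and postemergence onto plants 2 to 18 cm tall (1- to 4-leaf stage). After twelve to sixteen days in a greenhouse, injury was visually rated against untreated controls from 0 (no effect) to 10 (complete control).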

crabgrass = assay: Test B pre/postemergence crabgrass; assay type: in vivo, Digitaria sanguinalis; conditions: Preemergence
Summary of the method: as §1

corn = assay: Test B pre/postemergence corn; assay type: in vivo, Zea mays; conditions: Preemergence
Summary of the method: as §1

bamyardgrass = assay: Test B flood test barnyardgrass; assay type: in vivo, Echinochloa crus-galli
Summary of the method: (§2)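 Each value is a visual injury score relative to controls, with 10 meaning complete control and 0 no effect. Evaluation took place twelve to sixteen days after the 2-leaf-stage plants were treated and kept in the greenhouse.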

rape = assay: Test B pre/postemergence rape; assay type: in vivo, Brassica napus; conditions: Preemergence
Summary of the method: as §1

giant foxtail = assay: Test B pre/postemergence giant foxtail; assay type: in vivo, Setaria faberii; conditions: Preemergence
Summary of the method: as §1

velvetleaf = assay: Test B pre/postemergence velvetleaf; assay type: in vivo, Abutilon theophrasti; conditions: Preemergence
Summary of the method: as §1

purple nutsedge = assay: Test B pre/postemergence purple nutsedge; assay type: in vivo, Cyperus rotundus; conditions: Preemergence
Summary of the method: as §1

surinam grass = assay: Test B pre/postemergence surinam grass; assay type: in vivo, Brachiaria decumbens; conditions: Preemergence
Summary of the method: as §1

wild oat = assay: Test B pre/postemergence wild oat; assay type: in vivo, Avena fatua; conditions: Preemergence
Summary of the method: as §1

wheat = assay: Test B pre/postemergence wheat; assay type: in vivo, Triticum aestivum; conditions: Preemergence
Summary of the method: as §1

morningglory = assay: Test B pre/postemergence morningglory; assay type: in vivo, Ipomoea hederacea; conditions: Preemergence
Summary of the method: as §1

pigweed = assay: Test B pre/postemergence pigweed; assay type: in vivo, Amaranthus retroflexus; conditions: Preemergence
Summary of the method: as §1

rice = assay: Test B flood test rice; assay type: in vivo, Oryza sativa
Summary of the method: as §2

sugar beet = assay: Test B pre/postemergence sugar beet; assay type: in vivo, Beta vulgaris; conditions: Preemergence
Summary of the method: as §1

duck salad = assay: Test B flood test duck salad; assay type: in vivo, Heteranthera limosa
Summary of the method: as §2

soybean = assay: Test B pre/postemergence soybean; assay type: in vivo, Glycine max; conditions: Preemergence
Summary of the method: as §1

blackgrass = assay: Test B pre/postemergence blackgrass; assay type: in vivo, Alopecurus myosuroides; conditions: Preemergence
Summary of the method: as §1

smallflower flatsedge = assay: Test B flood test smallflower flatsedge; assay type: in vivo, Cyperus difformis
Summary of the method: as §2

cocklebur = assay: Test B pre/postemergence cocklebur; assay type: in vivo, Xanthium strumarium; conditions: Preemergence
Summary of the method: as §1

[1] = Rate 125 g/ha, scale of 0 to 10 where 0 is no effect and 10 is complete control
[2] = Rate 250 g/ha, scale 0 (no effect) to 10 (complete control)
[3] = Rate 500 g/ha, scale 0 to 10 (0 no effect, 10 complete control)
[4] = Rate 1000 g/ha, scale 0 to 10 (0 no effect, 10 complete control)
[5] = Pre-emergence, Rate 62 g/ha, scale 0 to 10, 0 is no effect, 10 is complete control
[6] = Rate 125 g/ha, Pre-emergence section (flood test species), scale 0 to 10, 0 no effect, 10 complete control
[7] = Rate 250 g/ha, Pre-emergence (flood test species), scale 0 to 10, 0 is no effect, 10 is complete control
[8] = Rate 500 g/ha, Pre-emergence section of Table B, 0 to 10 scale (0 no effect, 10 complete control)

COC(=O)C(c1ccccc1)n1c(=O)on(C(=O)N(c2ccc(Cl)cc2)C(C)C)c1=O (centres unmarked) [Compound 724]
Plant response rating, Bedstraw (bedstraw; [1]): 0
Bedstraw plant response rating (bedstraw; [2]): 0
Bedstraw plant response rating (bedstraw; [3]): 0
Plant response rating, Bedstraw (bedstraw; [4]): 0
Plant response rating, Crabgrass (crabgrass; [1]): 3
Crabgrass plant response rating (crabgrass; [2]): 7
Crabgrass plant response rating (crabgrass; [3]): 7
Plant response rating, Crabgrass (crabgrass; [4]): 9
Plant response rating, Corn (corn; [1]): 0
Corn plant response rating (corn; [2]): 0
Corn plant response rating (corn; [3]): 0
Plant response rating, Corn (corn; [4]): 0
Barnyardgrass plant response rating (bamyardgrass; [5]): 0
Barnyardgrass plant response rating (bamyardgrass; [6]): 0
Barnyardgrass plant response rating (bamyardgrass; [7]): 0
Barnyardgrass plant response rating (bamyardgrass; [8]): 0
Plant response rating, Rape (rape; [1]): 0
Rape plant response rating (rape; [2]): 0
Rape plant response rating (rape; [3]): 0
Plant response rating, Rape (rape; [4]): 0
Plant response rating, Giant foxtail (giant foxtail; [1]): 0
Giant foxtail plant response rating (giant foxtail; [2]): 7
Giant foxtail plant response rating (giant foxtail; [3]): 9
Plant response rating, Giant foxtail (giant foxtail; [4]): 10
Plant response rating, Velvetleaf (velvetleaf; [1]): 0
Velvetleaf plant response rating (velvetleaf; [2]): 0
Velvetleaf plant response rating (velvetleaf; [3]): 0
Plant response rating, Velvetleaf (velvetleaf; [4]): 0
Plant response rating, Nutsedge (purple nutsedge; [1]): 0
Nutsedge plant response rating (purple nutsedge; [2]): 0
Nutsedge plant response rating (purple nutsedge; [3]): 0
Plant response rating, Nutsedge (purple nutsedge; [4]): 0
Plant response rating, B. signalgrass (surinam grass; [1]): 0
B. signalgrass plant response rating (surinam grass; [2]): 0
B. signalgrass plant response rating (surinam grass; [3]): 0
Plant response rating, B. signalgrass (surinam grass; [4]): 0
Plant response rating, Wild oats (wild oat; [1]): 0
Wild oats plant response rating (wild oat; [2]): 0
Wild oats plant response rating (wild oat; [3]): 0
Plant response rating, Wild oats (wild oat; [4]): 0
Plant response rating, Wheat (wheat; [1]): 0
Wheat plant response rating (wheat; [2]): 0
Wheat plant response rating (wheat; [3]): 0
Plant response rating, Wheat (wheat; [4]): 0
Plant response rating, Morningglory (morningglory; [1]): 0
Morningglory plant response rating (morningglory; [2]): 0
Morningglory plant response rating (morningglory; [3]): 0
Plant response rating, Morningglory (morningglory; [4]): 0
Plant response rating, Redroot pigweed (pigweed; [1]): 0
Redroot pigweed plant response rating (pigweed; [2]): 0
Redroot pigweed plant response rating (pigweed; [3]): 0
Plant response rating, Redroot pigweed (pigweed; [4]): 3
Rice plant response rating (rice; [5]): 0
Rice plant response rating (rice; [6]): 0
Rice plant response rating (rice; [7]): 0
Rice plant response rating (rice; [8]): 0
Plant response rating, Sugarbeets (sugar beet; [1]): 0
Sugarbeets plant response rating (sugar beet; [2]): 0
Sugarbeets plant response rating (sugar beet; [3]): 0
Plant response rating, Sugarbeets (sugar beet; [4]): 0
Ducksalad plant response rating (duck salad; [5]): 0
Ducksalad plant response rating (duck salad; [6]): 0
Ducksalad plant response rating (duck salad; [7]): 0
Ducksalad plant response rating (duck salad; [8]): 0
Plant response rating, Soybean (soybean; [1]): 0
Soybean plant response rating (soybean; [2]): 0
Soybean plant response rating (soybean; [3]): 0
Plant response rating, Soybean (soybean; [4]): 0
Plant response rating, Blackgrass (blackgrass; [1]): 0
Blackgrass plant response rating (blackgrass; [2]): 0
Blackgrass plant response rating (blackgrass; [3]): 0
Plant response rating, Blackgrass (blackgrass; [4]): 2
S. Flatsedge plant response rating (smallflower flatsedge; [5]): 0
S. Flatsedge plant response rating (smallflower flatsedge; [6]): 0
S. Flatsedge plant response rating (smallflower flatsedge; [7]): 0
S. Flatsedge plant response rating (smallflower flatsedge; [8]): 0
Plant response rating, Cocklebur (cocklebur; [1]): 0
Cocklebur plant response rating (cocklebur; [2]): 0
Cocklebur plant response rating (cocklebur; [3]): 0
Plant response rating, Cocklebur (cocklebur; [4]): 0
